The values below are quoted from earlier work in patent US20110293690A1, “Biodegradable Polymer Encapsulated Microsphere Particulate Film and Method of Making Thereof” (Tyco Healthcare Group LP, priority 2010, published 2011).

Where a name gives a salt, the structure may show the parent alone. Read-outs that look alike come from different tables or passages of the source.

The conditions of data set [1]: in water, stated in words.

For the compound `CCCCN1CCCCC1C(=O)Nc1c(C)cccc1C` (stereo not drawn) [Bupivacaine, bupivacaine], the pKa result is reported as “about 8.1”. Further, the aqueous solubility entry in data set [1] (listed as free base form of bupivacaine) was “lower aqueous solubility”.
In the case of `CCCCN1CCCCC1C(=O)Nc1c(C)cccc1C` (stereo not drawn) [salt form of bupivacaine, bupivacaine hydrochloride], in data set [1] (hydrochloride), the aqueous solubility entry was “soluble in water”.
